This test relates to MOLT-4 cells. Put plainly: Cell proliferation activity in MOLT-4 cells (72 h, cell viability luminescence). Format: cell-based, human. The following applies: Homo sapiens, read-out: IC50 for the inhibition of MOLT-4 cell proliferation. The method, then:
MOLT-4 cells are acute lymphoblastic leukemia cell lines in humans. The cells were purchased from ATCC. Culture conditions: RPMI-1640+10% FBS+1% penicillin-streptomycin solution. The cells were cultured in a 37° C., 5% CO2 incubator. The cells were plated in a 96-well plate, with 5×10^3 cells/well. After plating, compounds at different concentrations were added and cultured in a 37° C., 5% CO2 incubator for 72 h. After the completion of culture, a reagent (Promega, G7573) for detecting the cell viability was added. The mixture was uniformly mixed for 2 minutes and then incubated at room temperature for 10 minutes. The luminescence signal was detected with a multimode plate reader (BMG, PHERAstar FSX). The luminescence readings were processed using GraphPad Prism 8.0 software and the IC50 values of the compounds for the inhibition of cell proliferation and the maximum inhibition rate were calculated according to formula (2) and formula (3), respectively, wherein Tadministration denotes the cell signal readings obtained after incubation with the compounds for 72 h, and Tvehicle denotes the cell signal readings obtained after incubation with the vehicle control for 72 h.
Calculation of Max inhibition %: after the processing according to formula (2), the inhibition rate of the compounds at the highest concentration was calculated.

In US20240408085A1, “COMPOUND FOR DEGRADATION OF BCL-2 FAMILY PROTEINS AND MEDICAL APPLICATION THEREOF” (XIZANG HAISCO PHARMACEUTICAL CO., LTD., priority 2021, published 2024) one finds IC50 data, which are given here for seven compounds.

Regarding `Cc1ncsc1-c1ccc([C@H](C)NC(=O)[C@@H]2C[C@@H](O)CN2C(=O)[C@@H](NC(=O)CCCCCCC(=O)N2C[C@H]3CN(CC[C@H](CSc4ccccc4)Nc4ccc(S(=O)(=O)NC(=O)c5ccc(N6CCN(CC7=C(c8ccc(Cl)cc8F)CCC8(CC8)C7)CC6)cc5)cc4S(=O)(=O)C(F)(F)F)C[C@H]3C2)C(C)(C)C)cc1` [Compound 23, cis-(2S,4R)-1-((S)-2-(8-(5-((R)-3-((4-(N-(4-(4-((6-(4-chloro-2-fluorophenyl)spiro[2.5]oct-5-en-5-yl)methyl)piperazin-1-yl)benzoyl)sulfamoyl)-2-((trifluoromethyl)sulfonyl)phenyl)amino)-4-(phenylthio)butyl)hexahydropyrrolo[3,4-c]pyrrol-2(1H)-yl)-8-oxooctanamido)-3,3-dimethylbutanoyl)-4-hydroxy-N—((S)-1-(4-(4-methylthiazol-5-yl)phenyl)ethyl)pyrrolidine-2-carboxamide], the IC50 is less than 500 nM.
On to `Cc1ncsc1-c1ccc([C@H](C)NC(=O)[C@@H]2C[C@@H](O)CN2C(=O)[C@@H](NC(=O)CCCCCCC(=O)N2C[C@@H]3C[C@H]2CN3CC[C@H](CSc2ccccc2)Nc2ccc(S(=O)(=O)NC(=O)c3ccc(N4CCN(CC5=C(c6ccc(Cl)cc6)CCCCC5)CC4)cc3)cc2S(=O)(=O)C(F)(F)F)C(C)(C)C)cc1` [Compound 34, (2S,4R)-1-((S)-2-(8-((1S,4S)-5-((R)-3-((4-(N-(4-(4-((2-(4-chlorophenyl)cyclohept-1-en-1-yl)methyl)piperazin-1-yl)benzoyl)sulfamoyl)-2-((trifluoromethyl)sulfonyl)phenyl)amino)-4-(phenylthio)butyl)-2,5-diazabicyclo[2.2.1]heptan-2-yl)-8-oxooctanamido)-3,3-dimethylbutanoyl)-4-hydroxy-N—((S)-1-(4-(4-methylthiazol-5-yl)phenyl)ethyl)pyrrolidine-2-carboxamide], for which the IC50 is less than 500 nM.
As for `Cc1ncsc1-c1ccc([C@H](C)NC(=O)[C@@H]2C[C@@H](O)CN2C(=O)[C@@H](NC(=O)CCCCCCC(=O)N2C[C@@H]3C[C@H]2CN3CC[C@H](CSc2ccccc2)Nc2ccc(S(=O)(=O)NC(=O)c3ccc(N4CCN(CC5=C(c6ccc(Cl)cc6)CCC6(CC6)C5)CC4)cc3)cc2S(=O)(=O)C(F)(F)F)C(C)(C)C)cc1` [Compound 28, (2S,4R)-1-((S)-2-(8-((1S,4S)-5-((R)-3-((4-(N-(4-(4-((6-(4-chlorophenyl)spiro[2.5]oct-5-en-5-yl)methyl)piperazin-1-yl)benzoyl)sulfamoyl)-2-((trifluoromethyl)sulfonyl)phenyl)amino)-4-(phenylthio)butyl)-2,5-diazabicyclo[2.2.1]heptan-2-yl)-8-oxooctanamido)-3,3-dimethylbutanoyl)-4-hydroxy-N—((S)-1-(4-(4-methylthiazol-5-yl)phenyl)ethyl)pyrrolidine-2-carboxamide], the IC50 was less than 500 nM.
Regarding `Cc1ncsc1-c1ccc([C@H](C)NC(=O)[C@@H]2C[C@@H](O)CN2C(=O)[C@@H](NC(=O)CCCCCC(=O)N2CCN(CC[C@H](CSc3ccccc3)Nc3ccc(S(=O)(=O)NC(=O)c4ccc(N5CCN(CC6=C(c7ccc(Cl)cc7F)CCC7(CC7)C6)CC5)cc4)cc3S(=O)(=O)C(F)(F)F)CC2)C(C)(C)C)cc1` [Compound 31, (2S,4R)-1-((S)-2-(7-(4-((R)-3-((4-(N-(4-(4-((6-(4-chloro-2-fluorophenyl)spiro[2.5]oct-5-en-5-yl)methyl)piperazin-1-yl)benzoyl)sulfamoyl)-2-((trifluoromethyl)sulfonyl)phenyl)amino)-4-(phenylthio)butyl)piperazin-1-yl)-7-oxoheptanamido)-3,3-dimethylbutanoyl)-4-hydroxy-N—((S)-1-(4-(4-methylthiazol-5-yl)phenyl)ethyl)pyrrolidine-2-carboxamide], the IC50 was less than 500 nM.
For `Cc1ncsc1-c1ccc([C@H](C)NC(=O)[C@@H]2C[C@@H](O)CN2C(=O)[C@@H](NC(=O)CCCCCCCC(=O)N2C[C@H]3CN(CC[C@H](CSc4ccccc4)Nc4ccc(S(=O)(=O)NC(=O)c5ccc(N6CCN(CC7=C(c8ccc(Cl)cc8)CCC(C)(C)C7)CC6)cc5)cc4S(=O)(=O)C(F)(F)F)C[C@H]3C2)C(C)(C)C)cc1` [Compound 16, cis-(2S,4R)-1-((S)-2-(9-(5-((R)-3-((4-(N-(4-(4-((4′-chloro-4,4-dimethyl-3,4,5,6-tetrahydro-[1,1′-biphenyl]-2-yl)methyl)piperazin-1-yl)benzoyl)sulfamoyl)-2-((trifluoromethyl)sulfonyl)phenyl)amino)-4-(phenylthio)butyl)hexahydropyrrolo[3,4-c]pyrrol-2(1H)-yl)-9-oxononanamido)-3,3-dimethylbutanoyl)-4-hydroxy-N—((S)-1-(4-(4-methylthiazol-5-yl)phenyl)ethyl)pyrrolidine-2-carboxamide], the IC50 was less than 500 nM.
As for `Cc1ncsc1-c1ccc([C@H](C)NC(=O)[C@@H]2C[C@@H](O)CN2C(=O)[C@@H](NC(=O)CCCCCC(=O)N2C[C@@H]3C[C@H]2CN3CC[C@H](CSc2ccccc2)Nc2ccc(S(=O)(=O)NC(=O)c3ccc(N4CCN(CC5=C(c6ccc(Cl)cc6F)CCCCC5)CC4)cc3)cc2S(=O)(=O)C(F)(F)F)C(C)(C)C)cc1` [Compound 37, (2S,4R)-1-((S)-2-(7-((1S,4S)-5-((R)-3-((4-(N-(4-(4-((2-(4-chloro-2-fluorophenyl)cyclohept-1-en-1-yl)methyl)piperazin-1-yl)benzoyl)sulfamoyl)-2-((trifluoromethyl)sulfonyl)phenyl)amino)-4-(phenylthio)butyl)-2,5-diazabicyclo[2.2.1]heptan-2-yl)-7-oxoheptanamido)-3,3-dimethylbutanoyl)-4-hydroxy-N—((S)-1-(4-(4-methylthiazol-5-yl)phenyl)ethyl)pyrrolidine-2-carboxamide], the figure is less than 500 nM.
As for `Cc1ncsc1-c1ccc([C@H](C)NC(=O)[C@@H]2C[C@@H](O)CN2C(=O)[C@@H](NC(=O)CCCCCC(=O)N2CCN(CC[C@H](CSc3ccccc3)Nc3ccc(S(=O)(=O)NC(=O)c4ccc(N5CCN(CC6=C(c7ccc(Cl)cc7)CCC(C)(C)C6)CC5)nc4)cc3S(=O)(=O)C(F)(F)F)CC2)C(C)(C)C)cc1` [Compound 7, 6-(4-((4′-chloro-4,4-dimethyl-3,4,5,6-tetrahydro-[1,1′-biphenyl]-2-yl)methyl)piperazin-1-yl)-N-((4-(((R)-4-(4-(7-(((S)-1-((2S,4R)-4-hydroxy-2-(((S)-1-(4-(4-methylthiazol-5-yl)phenyl)ethyl)carbamoyl)pyrrolidin-1-yl)-3,3-dimethyl-1-oxobutan-2-yl)amino)-7-oxoheptanoyl)piperazin-1-yl)-1-(phenylthio)butan-2-yl)amino)-3-((trifluoromethyl)sulfonyl)phenyl)sulfonyl)nicotinamide], the figure is less than 500 nM.
